Experimental data: paper PMC7403138 (Clinical Pharmacokinetics, 2020)

Experiment: Population pharmacokinetic analysis
Format: in vivo, human

With `CC(C)c1c(C(=O)Nc2ccccc2)c(-c2ccccc2)c(-c2ccc(F)cc2)n1CC[C@@H](O)C[C@@H](O)CC(=O)O` [atorvastatin] as the molecule, how does the FRator-oOH (base PK model) read?
The FRator-oOH was 11%.

What about the “between-subject variability on CLator” value (base PK model, CV%) of the same molecule?
Its value is 94%.

What about the “between-subject variability on FRator-oOH” value (base PK model, CV%) of the same molecule?
The value was 131%.

What about the “between-subject variability on Vcator=Vcmet” value (base PK model, CV%) of the same molecule?
Its value is 137%.

What about the “decrease in logit(FRator-oOH)” value (coadministration of boosted ARVs) of the same molecule?
The value was 225%.

Which results are given for `CC(C)c1c(C(=O)Nc2ccccc2O)c(-c2ccccc2)c(-c2ccc(F)cc2)n1CC[C@@H](O)C[C@@H](O)CC(=O)O` [o-OH-atorvastatin, ortho-hydroxy atorvastatin]?
central volume of distribution of atorvastatin and o-OH-atorvastatin (Vcator=Vcmet) (base PK model): 3170 L; metabolite clearance (CLo-OH-ator) (base PK model): 118 L/h; o-OH-atorvastatin formed slower (presence vs absence of boosted ARVs, full dataset): 88%
